According to patent US6762045B2, “Membrane derived caspase-3, compositions comprising the same and methods of use therefor” (Idun Pharmaceuticals, Inc., priority 2000, dated 2004):
Like-named read-outs stand apart in the source and are kept apart here.

Columns and labels:
[1] = molecular target: T1, caspase-1 activation of membrane derived procaspase-3 (Mus musculus, UniProt P29452); assay: Caspase-1 mediated activation of membrane procaspase-3 in 697 heavy membranes; assay type: biochemical, human
T1 construct: contains the p30 caspase-1 cDNA inserted into the Nde I/BamH I sites of the pET3a expression vector; FLAG; made in house; host or cells: caspase-1: E. coli BL21 (DE3) pLysS lysate; procaspase-3: endogenous in 697 cell heavy membranes
T1 sequence (P29452 119-296 limits assumed): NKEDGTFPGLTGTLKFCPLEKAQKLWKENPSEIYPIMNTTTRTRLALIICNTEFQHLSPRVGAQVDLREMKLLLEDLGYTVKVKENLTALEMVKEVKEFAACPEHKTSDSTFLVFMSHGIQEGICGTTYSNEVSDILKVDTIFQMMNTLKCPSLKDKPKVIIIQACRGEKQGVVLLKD
T1 sequence (P29452 315-402 limits assumed): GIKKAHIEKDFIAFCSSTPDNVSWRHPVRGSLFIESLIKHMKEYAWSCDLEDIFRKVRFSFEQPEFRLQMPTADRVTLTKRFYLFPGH
Experimental: Heavy membrane samples were diluted to 1 mg/ml in hypotonic buffer or in 0.25 M sucrose, 10 mM MOPS, 2 mM EDTA, pH 7.4 (Mancini, et al., 1998) containing 5 mM DTT with or without 1% NP-40. […] After the activation period, the heavy membrane pellet was removed from the sample by centrifugation for 10 min at 14,000×g at 4° C. […] In some experiments, caspase-1 activity was rapidly quenched at specific time points by the addition of one-tenth volume 3 μM YVADaldehyde (Bachem Bioscience, King of Prussia, Pa.) prior to centrifugation. To examine the time course of spontaneous activation of caspase activity from membranes, 50 μi of heavy membrane slurry containing 50-100 μg total protein was mixed with 200 μl hypotonic buffer containing 25 μM DEVD-amc substrate and 6 mM DTT in 96 well Cytofluor plates and fluorescence was measured over time. At selected time points, aliquots were removed from some wells, centrifuged for 10 min at 14,000×g to remove the heavy membranes and the supernatant was added back into the 96 well plate to measure the soluble DEVD-amc cleavage activity. […]
In this experiment, heavy membrane fractions (containing 50 μg total protein) from 697-Bcl-2 and 697-neo cells were re-suspended and treated with murine caspase-1 for one hour at room temperature. Following centrifugation, the DEVD-amc cleavage activity of the resulting supernatant was measured.

[2] = molecular target: T2, 697-neo HM (caspase-1 treated) derived caspase (Homo sapiens, UniProt P42574); assay: Inhibition of DEVD-amc cleavage, caspase-1 activated 697-neo heavy membranes; assay type: biochemical
T2 construct: the heavy membrane caspase is comprised of a large 19-kDa subunit and a smaller 12-kDa subunit; endogenous in cells; host or cells: 697-neo / 697-Bcl-2 human lymphoblastoid cells; supernatant assayed
T2 sequence (P42574 14-175): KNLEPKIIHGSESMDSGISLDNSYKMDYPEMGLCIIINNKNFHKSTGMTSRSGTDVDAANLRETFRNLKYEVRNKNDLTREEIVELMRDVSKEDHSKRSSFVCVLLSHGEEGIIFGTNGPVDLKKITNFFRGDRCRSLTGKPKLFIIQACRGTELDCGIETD
T2 sequence (P42574 176-277): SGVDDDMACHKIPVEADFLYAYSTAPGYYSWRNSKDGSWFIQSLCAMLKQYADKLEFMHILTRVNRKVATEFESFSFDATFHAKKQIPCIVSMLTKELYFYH
Experimental: (§1) SEQ ID NO:6) substrate in ICE buffer (20 mM HEPES, 1 mM EDTA, 0.1% CHAPS, 10% sucrose, 5 mM DTT, pH 7.5) in duplicate Cytoplate wells. […] KM values were calculated from these measurements using the equation: where ΔFL/Δt is the observed initial rate of fluorescence change at substrate concentration [S] and (ΔFL/Δt)MAX is the initial rate of fluorescence change at saturating substrate concentrations. For inhibition studies, 50 μl of the enzyme was pretreated with 150 μl inhibitor for 30 min at room temperature prior to the addition of 50 μl of 50 μM substrate solution.

[3] = molecular target: T3, recombinant human caspase-3 (r-caspase-3 (His)6) (Homo sapiens, UniProt P42574); assay: DEVD-amc cleavage by recombinant caspase-3; assay type: biochemical
T3 construct: The large subunit of purified bacterially expressed caspase-3 migrates as a 17-kDa band; purified fully-processed recombinant human caspase-3; His6 (C); made in house; host or cells: E. coli BL21 (DE3), pET21b; Ni2+ chelating column
T3 sequence (P42574 29-175 limits assumed): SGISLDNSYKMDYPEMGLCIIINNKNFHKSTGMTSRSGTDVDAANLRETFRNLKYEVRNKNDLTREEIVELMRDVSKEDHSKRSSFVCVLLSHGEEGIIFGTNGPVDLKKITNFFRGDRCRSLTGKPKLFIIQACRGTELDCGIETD
T3 sequence (P42574 176-277 limits assumed): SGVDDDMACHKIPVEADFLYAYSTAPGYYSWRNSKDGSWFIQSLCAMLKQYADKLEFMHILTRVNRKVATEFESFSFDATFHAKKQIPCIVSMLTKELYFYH
Experimental: (§2) For inhibition studies, 50 μl of the enzyme was pretreated with 150 μl inhibitor for 30 min at room temperature prior to the addition of 50 μl of 50 μM substrate solution.

caspase-1 = molecular target: T4, caspase-1 (Mus musculus, UniProt P29452); assay: Caspase-1 inhibition; assay type: biochemical; details: 300 nM
T4 construct: contains the p30 caspase-1 cDNA inserted into the Nde I/BamH I sites of the pET3a expression vector; FLAG; made in house; host or cells: E. coli BL21 (DE3) pLysS, pET3a; used as clarified bacterial lysate
T4 sequence (P29452 119-296 limits assumed): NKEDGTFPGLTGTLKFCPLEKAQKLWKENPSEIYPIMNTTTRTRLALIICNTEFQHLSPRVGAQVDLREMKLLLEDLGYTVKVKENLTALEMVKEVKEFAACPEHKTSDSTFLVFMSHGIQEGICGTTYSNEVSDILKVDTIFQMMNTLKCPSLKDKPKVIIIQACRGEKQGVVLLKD
T4 sequence (P29452 315-402 limits assumed): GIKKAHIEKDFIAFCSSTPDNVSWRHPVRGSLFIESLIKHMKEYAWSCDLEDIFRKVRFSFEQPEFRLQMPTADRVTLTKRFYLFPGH

[4] = test system: cortical cell HM (caspase-1 treated) derived caspase; assay: Inhibition of DEVD-amc cleavage, caspase-1 activated E15 brain cortical cell heavy membranes; assay type: biochemical, mouse
Experimental: (§3) Caspase activity was measured by mixing 50 μl of an enzyme-containing fraction and 200 μl of 25 μM DEVD-amc (Asp-Glu-Val-Asp-aminomethylcoumarin; SEQ ID NO:6) substrate in ICE buffer (20 mM HEPES, 1 mM EDTA, 0.1% CHAPS, 10% sucrose, 5 mM DTT, pH 7.5) in duplicate Cytoplate wells. Product formation was monitored by the increase in fluorescence (ex=360 nm, em=460 nm) over 1-2 hours at 30° C. using the CytoFluor 4000 plate reader (Perseptive Biosystems, Framingham, Mass.). For kinetic studies, the substrate concentration was varied in the range 1-200 μM. KM values were calculated from these measurements using the equation: […]
(§4) where ΔFL/Δt is the observed initial rate of fluorescence change at substrate concentration [S] and (ΔFL/Δt)MAX is the initial rate of fluorescence change at saturating substrate concentrations. […] Inhibitor IC50 values were determined using the equation: […]
(§5) ΔFL/Δt is the observed initial rate of fluorescence change at inhibitor concentration [I] and (ΔFL/Δt)o is the initial rate fluorescence change for the uninhibited enzyme. […]
(§6) To determine if the presence of membrane derived caspase activity is a general property of mammalian cells, the DEVD-amc cleavage activity in heavy membranes from two other cell sources was measured: mouse E 15 primary brain cortical cells and the mouse dopaminergic MN9D cell line (Choi et al., […] 89:8943-8947, 1992). […]

[5] = molecular target: T5, 697 Bcl-2 HM (caspase-1 treated) derived caspase (Homo sapiens, UniProt P42574); assay: Inhibition of DEVD-amc cleavage, caspase-1 activated 697-Bcl-2 heavy membranes; assay type: biochemical
T5 construct: the heavy membrane caspase is comprised of a large 19-kDa subunit and a smaller 12-kDa subunit; endogenous in cells; host or cells: 697-neo / 697-Bcl-2 human lymphoblastoid cells; supernatant assayed
T5 sequence (P42574 14-175): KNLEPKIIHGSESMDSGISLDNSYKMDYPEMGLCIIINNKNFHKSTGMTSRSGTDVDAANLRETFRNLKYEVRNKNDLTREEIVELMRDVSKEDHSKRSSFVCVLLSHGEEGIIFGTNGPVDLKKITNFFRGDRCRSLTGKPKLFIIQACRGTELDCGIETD
T5 sequence (P42574 176-277): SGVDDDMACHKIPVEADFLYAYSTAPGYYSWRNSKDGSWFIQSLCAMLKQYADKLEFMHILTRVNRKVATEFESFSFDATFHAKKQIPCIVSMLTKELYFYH
Experimental: as §1

[6] = molecular target: MN9D HM (caspase-1 treated) derived caspase; assay: Inhibition of DEVD-amc cleavage, caspase-1 activated MN9D heavy membranes; assay type: biochemical, mouse
Experimental: as §3, §4, §5, §6

[7] = molecular target: T6, purified membrane derived caspase-3 (Homo sapiens, UniProt P42574); assay: DEVD-AMC cleavage by affinity purified membrane derived caspase-3 from 697 cells; assay type: biochemical
T6 construct: the heavy membrane caspase is comprised of a large 19-kDa subunit and a smaller 12-kDa subunit; endogenous in cells; host or cells: 697 human lymphoblastoid cells
T6 sequence (P42574 14-175): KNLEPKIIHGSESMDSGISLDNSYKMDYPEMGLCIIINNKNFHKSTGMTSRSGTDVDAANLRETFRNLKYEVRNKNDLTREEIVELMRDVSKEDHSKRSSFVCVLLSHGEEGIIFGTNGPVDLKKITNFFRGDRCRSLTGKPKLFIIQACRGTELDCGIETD
T6 sequence (P42574 176-277): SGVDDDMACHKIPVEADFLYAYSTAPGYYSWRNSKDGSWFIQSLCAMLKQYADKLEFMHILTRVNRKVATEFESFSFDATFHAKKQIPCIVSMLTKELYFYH
Experimental: as §2

CC(=O)N[C@@H](Cc1ccc(O)cc1)C(=O)N[C@H](C(=O)N[C@@H](C)C(=O)N[C@H](C=O)CC(=O)O)C(C)C [YVAD-ald]
Block of caspase-1 activation of membrane caspase ([1]; 200 nM): completely blocked
Block of activation of DEVD-AMC hydrolytic activity and generation of 20-kDa large subunit ([1]; caspase-1 pretreated with 300 nM): blocks
Inhibition of DEVD-AMC hydrolysis activity of caspase-1 activated membrane caspase ([2]; 300 nM): not inhibited
IC50 ([2]; inhibition of DEVD-amc cleavage): > 10 µM
IC50 ([3]; inhibition of DEVD-amc cleavage, read-out: IC50 r-caspase-3 (His)6): > 10 µM
IC50 ([3]; read-out: IC50 caspase-3): > 10 µM
Inhibition of caspase-1 (caspase-1): completely inhibits
IC50 [4]: > 10 µM
IC50 [5]: > 10 µM
IC50 [6]: > 10 µM

CC(C)[C@H](NC(=O)[C@H](CCC(=O)O)NC(=O)OCc1ccccc1)C(=O)N[C@H](C=O)CC(=O)O [ZEVDald]
IC50 ([7]; inhibition of DEVD-AMC cleavage, Table III, read-out: IC50 Membrane (purified membrane derived caspase-3)): 32 nM

B1: Baculovirus p35: early p35 protein from Autographa californica nuclear polyhedrosis virus, recombinant (protein)
chain: MCVIFPVEIDVSQTIIRDCQVDKQTRELVYINKIMNTQLTKPVLMMFNISGPIRSVTRKNNNLRDRIKSKVDEQFDQLERDYSDQMDGFHDSIKYFKDEHYSVSCQNGSVLKSKFAKILKSHDYTDKKSIEAYEKYCLPKLVDERNDYYVAVCVLKPGFENGSNQVLSFEYNPIGNKVIVPFAHEINDTGLYEYDVVAYVDSVQFDGEQFEEFVQSLILPSSFKNSEKVLYYNEASKNKSMIYKALEFTTESSWGKSEKYNWKIFCNGFIYDKKSKVLYVKLHNVTSALNKNVILNTIK
IC50 ([3]; inhibition of DEVD-AMC cleavage, Table III, read-out: IC50 Recombinant (caspase-3)): 4.1e-05 µM
IC50 ([7]; read-out: IC50 heavy membrane caspase from 697 cells): 0.074 nM
